The source made the active and inactive calls. The rule behind the calls is not given here.
Legend:
[1] = test system: K562; test: Cytotoxicity against human K562 cells after 72 hrs by MTT assay; format: functional, cell-based; settings: K562, 72 h
[2] = Cytotoxicity against human K562/A02 cells after 72 hrs by MTT assay; format: functional, cell-based; settings: K562/A02, 72 h
[3] = Cytotoxicity against human HL60 cells after 72 hrs by MTT assay; format: functional, cell-based; settings: HL-60, 72 h
[4] = Cytotoxicity against human HL60/ADR cells after 72 hrs by MTT assay; format: functional, cell-based
[5] = Cytotoxicity against human KG1a cells after 72 hrs by MTT assay; format: functional, cell-based; settings: KG-1a
[6] = Cytotoxicity against human hematopoietic stem cells after 24 hrs by MTT assay; format: cell-based
[7] = Cytotoxicity against human AML cells assessed as cell viability at 5 uM after 18 hrs by annexin staining based assay; format: functional; settings: read-out: Activity
[8] = Cytotoxicity against human CD34-positive leukemia stem/progenitor AML cells assessed as cell viability at 5 uM after 18 hrs by annexin staining based assay; format: functional; settings: read-out: Activity
[9] = Cytotoxicity against human CD38 deficient CD34-positive leukemia stem/progenitor AML cells assessed as cell viability at 5 uM after 18 hrs by annexin staining based assay; format: functional; settings: read-out: Activity
[10] = Cytotoxicity against human AML cells assessed as cell viability at 10 uM after 18 hrs by annexin staining based assay; format: functional; settings: read-out: Activity
[11] = Cytotoxicity against human CD34-positive leukemia stem/progenitor AML cells assessed as cell viability at 10 uM after 18 hrs by annexin staining based assay; format: functional; settings: read-out: Activity
[12] = Cytotoxicity against human CD38 deficient CD34-positive leukemia stem/progenitor AML cells assessed as cell viability at 10 uM after 18 hrs by annexin staining based assay; format: functional; settings: read-out: Activity
[13] = test system: KG-1a; test: Induction of apoptosis in human KG1a cells assessed as viable cells at 5 uM after 24 hrs by Annexin V-FITC/PI staining based flow cytometry (Rvb=95.1%); format: functional; settings: read-out: Activity
[14] = test system: KG-1a; test: Induction of apoptosis in human KG1a cells assessed as viable cells at 10 uM after 24 hrs by Annexin V-FITC/PI staining based flow cytometry (Rvb=95.1%); format: functional; settings: read-out: Activity
[15] = test system: KG-1a; test: Induction of apoptosis in human KG1a cells assessed as viable cells at 20 uM after 24 hrs by Annexin V-FITC/PI staining based flow cytometry (Rvb=95.1%); format: functional; settings: read-out: Activity
[16] = test system: KG-1a; test: Induction of apoptosis in human KG1a cells assessed as viable cells at 50 uM after 24 hrs by Annexin V-FITC/PI staining based flow cytometry (Rvb=95.1%); format: functional; settings: read-out: Activity
[17] = test system: KG-1a; test: Induction of apoptosis in human KG1a cells assessed as early apoptotic cells at 5 uM after 24 hrs by Annexin V-FITC/PI staining based flow cytometry (Rvb=2.40%); format: functional
[18] = test system: KG-1a; test: Induction of apoptosis in human KG1a cells assessed as early apoptotic cells at 10 uM after 24 hrs by Annexin V-FITC/PI staining based flow cytometry (Rvb=2.40%); format: functional
[19] = test system: KG-1a; test: Induction of apoptosis in human KG1a cells assessed as early apoptotic cells at 20 uM after 24 hrs by Annexin V-FITC/PI staining based flow cytometry (Rvb=2.40%); format: functional
[20] = test system: KG-1a; test: Induction of apoptosis in human KG1a cells assessed as early apoptotic cells at 50 uM after 24 hrs by Annexin V-FITC/PI staining based flow cytometry (Rvb=2.40%); format: functional
[21] = test system: KG-1a; test: Induction of apoptosis in human KG1a cells assessed as late apoptotic cells at 5 uM after 24 hrs by Annexin V-FITC/PI staining based flow cytometry (Rvb=2.30%); format: functional
[22] = test system: KG-1a; test: Induction of apoptosis in human KG1a cells assessed as late apoptotic cells at 10 uM after 24 hrs by Annexin V-FITC/PI staining based flow cytometry (Rvb=2.30%); format: functional
[23] = test system: KG-1a; test: Induction of apoptosis in human KG1a cells assessed as late apoptotic cells at 20 uM after 24 hrs by Annexin V-FITC/PI staining based flow cytometry (Rvb=2.30%); format: functional
[24] = test system: KG-1a; test: Induction of apoptosis in human KG1a cells assessed as late apoptotic cells at 50 uM after 24 hrs by Annexin V-FITC/PI staining based flow cytometry (Rvb=2.30%); format: functional
[25] = test system: KG-1a; test: Induction of apoptosis in human KG1a cells assessed as necrotic cells at 5 uM after 24 hrs by Annexin V-FITC/PI staining based flow cytometry (Rvb=0.227%); format: functional
[26] = test system: KG-1a; test: Induction of apoptosis in human KG1a cells assessed as necrotic cells at 10 uM after 24 hrs by Annexin V-FITC/PI staining based flow cytometry (Rvb=0.227%); format: functional
[27] = test system: KG-1a; test: Induction of apoptosis in human KG1a cells assessed as necrotic cells at 20 uM after 24 hrs by Annexin V-FITC/PI staining based flow cytometry (Rvb=0.227%); format: functional
[28] = test system: KG-1a; test: Induction of apoptosis in human KG1a cells assessed as necrotic cells at 50 uM after 24 hrs by Annexin V-FITC/PI staining based flow cytometry (Rvb=0.227%); format: functional
[29] = Induction of apoptosis in human KG1a cells assessed as upregulation of Bax expression at 2.5 to 10 uM after 24 hrs by Western blot analysis; format: functional, cell-based; settings: KG-1a
[30] = Induction of apoptosis in human KG1a cells assessed as upregulation of caspase 3 cleavage at 2.5 to 10 uM after 24 hrs by Western blot analysis; format: functional, cell-based; settings: KG-1a
[31] = Induction of apoptosis in human KG1a cells assessed as upregulation of caspase 9 cleavage at 2.5 to 10 uM after 24 hrs by Western blot analysis; format: functional, cell-based; settings: KG-1a
[32] = Induction of apoptosis in human KG1a cells assessed as upregulation of PARP cleavage at 2.5 to 10 uM after 24 hrs by Western blot analysis; format: functional, cell-based; settings: KG-1a
[33] = Aqueous solubility of compound; format: physicochemical; settings: buffer
[34] = test system: KG-1a; test: Antitumor activity against human KG1a cells xenografted in SCID mice assessed as inhibition of tumor growth at 50 mg/kg, po administered every other day for 7 times; format: functional, organism-based
[35] = test system: KG-1a; test: Antitumor activity against human KG1a cells xenografted in SCID mice assessed as reduction in tumor weight at 50 mg/kg, po administered every other day for 7 times measured after 1 month; format: functional, organism-based
[36] = test system: Mus musculus; test: Toxicity in SCID mouse xenografted with KG1a cells assessed as effect on body weight at 50 mg/kg, po administered every other day for 7 times; format: organism-based; settings: in vivo
[37] = test system: HL-60; test: Selectivity index, ratio IC50 for human […] cells; format: functional
[38] = Selectivity index, ratio IC50 for human KG1a cells to IC50 for human HL60 cells; format: functional

Q: Which IC50 [1] does the source give for C=C1C(=O)O[C@@H]2[C@@H]3[C@@H](CCC34CC4)C3(CC[C@@H]12)CC3 here?
A: 7 µM

Q: What about the IC50 [2] of the same compound?
A: 7.7 µM

Q: And the IC50 [3]?
A: 5.7 µM

Q: What about the IC50 [4] of the same compound?
A: 6.7 µM

Q: What about the IC50 [5] of the same compound?
A: 7.6 µM

Q: And the IC50 [6]?
A: > 50 µM

Q: And the viability at 5 µM [7]?
A: 50.7%

Q: And the viability at 5 µM [8]?
A: 42.2%

Q: What about the viability at 5 µM [9] of the same compound?
A: 24.2%

Q: What about the viability at 10 µM [10] of the same compound?
A: 6.5%

Q: And the viability at 10 µM [11]?
A: 1.9%

Q: And the viability at 10 µM [12]?
A: 0.46%

Q: What about the viability at 5 µM [13] of the same compound?
A: 82.5%

Q: And the viability at 10 µM [14]?
A: 66.5%

Q: What about the viability at 20 µM [15] of the same compound?
A: 2%

Q: What about the viability at 50 µM [16] of the same compound?
A: 1.32%

Q: What about the Activity [17] of the same compound?
A: 6.54%

Q: What about the Activity [18] of the same compound?
A: 23.3%

Q: What about the Activity [19] of the same compound?
A: 49.9%

Q: What about the Activity [20] of the same compound?
A: 45%

Q: What about the Activity [21] of the same compound?
A: 3.51%

Q: And the Activity [22]?
A: 9.13%

Q: What about the Activity [23] of the same compound?
A: 44.4%

Q: And the Activity [24]?
A: 49%

Q: What about the Activity [25] of the same compound?
A: 0.21%

Q: What about the Activity [26] of the same compound?
A: 1.05%

Q: What about the Activity [27] of the same compound?
A: 3.05%

Q: And the Activity [28]?
A: 4.71%

Q: What about the Activity [29] of the same compound?
A: Active

Q: What about the Activity [30] of the same compound?
A: Active

Q: And the Activity [31]?
A: Active

Q: And the Activity [32]?
A: Active

Q: And the solubility [33]?
A: Insoluble

Q: What does the source list for CN(C)C[C@@H]1C(=O)O[C@H]2[C@H]1CCC1(CC1)[C@@H]1CCC3(CC3)[C@H]21.O=C(O)/C=C/C(=O)O?
A: TGI [34]: Active; Activity [35]: Active; Activity [36]: Non-toxic

Q: For COc1cccc2c1C(=O)c1c(O)c3c(c(O)c1C2=O)C[C@@](O)(C(=O)CO)C[C@@H]3O[C@H]1C[C@H](N)[C@H](O)[C@H](C)O1.Cl [DOXORUBICIN HYDROCHLORIDE], which IC50 [2] is on record?
A: 10.6 µM

Q: And the IC50 [3]?
A: 0.016 µM

Q: What about the IC50 [4] of the same compound?
A: 4.89 µM

Q: What about the IC50 [5] of the same compound?
A: 0.82 µM

Q: What about the “Ratio IC50” value [37] of the same compound?
A: 300

Q: And the “Ratio IC50” value [38]?
A: 50

Q: What does the source list for C=C1CC[C@H]2C(=C)CC[C@H]3C(=C)C(=O)O[C@@H]3[C@@H]12 [DEHYDROCOSTUSLACTONE]?
A: IC50 [1]: 5.3 µM; IC50 [2]: 6.6 µM; IC50 [3]: 3.7 µM; IC50 [4]: 5.1 µM; IC50 [5]: 10.5 µM

From ChEMBL document CHEMBL3763154, “Dispirocyclopropyldehydrocostus lactone selectively inhibits acute myelogenous leukemia cells” (Bioorg Med Chem Lett, 2016)
